Columns and labels:
Ppnk [1] = target: T1, Ppnk (Mycobacterium tuberculosis, UniProt P9WHV7)
Ppnk [2] = target: T1, Ppnk; assay: Effect of NADP and ADP on NADP-producing activity of purified Ppnk; assay type: biochemical, M. tuberculosis; conditions: various levels of NADP or ADP
Description: The NADP-producing activity was assayed in the presence of various levels of NADP (solid circles) or ADP (open circles).
A reaction for producing NADP was performed in a reaction mixture solution (4.0 ml) at 37° C. with shaking. […] After the reaction for 1 hour, 10 μl of the reaction mixture was collected and enzymatically assayed for NADP using isocitrate dehydrogenase (Sigma-Aldrich Japan, Tokyo, Japan). The activity was expressed in μmol/g cells/hour.

T1 sequence (P9WHV7 whole entry, looked up): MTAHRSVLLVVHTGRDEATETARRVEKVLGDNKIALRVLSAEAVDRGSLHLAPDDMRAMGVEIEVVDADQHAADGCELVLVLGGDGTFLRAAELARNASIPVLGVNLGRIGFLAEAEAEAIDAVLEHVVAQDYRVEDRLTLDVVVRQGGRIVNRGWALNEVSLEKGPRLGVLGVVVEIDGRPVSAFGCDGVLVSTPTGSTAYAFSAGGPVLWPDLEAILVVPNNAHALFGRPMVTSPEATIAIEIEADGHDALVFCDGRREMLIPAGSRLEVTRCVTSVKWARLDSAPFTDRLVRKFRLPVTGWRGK

| SMILES | Mg2+ concentration giving highest activity (Ppnk [1]) [mM] | effectiveness among metal ions (Mg2+, Mn2+, Ca2+) (Ppnk [1]) | inhibition of polyphosphate-dependent NAD kinase activity of Ppnk (Ppnk [2]) |
| --- | --- | --- | --- |
| [Cl-].[Cl-].[Mg+2] [MgCl2] | 100 | most effective |  |
| Nc1ncnc2c1ncn2[C@@H]1O[C@H](COP(=O)(O)OP(=O)(O)O)[C@@H](O)[C@H]1O [ADP] |  |  | not inhibited |
